Where “and” joins values, the source holds several entries; their conditions need not be identical. Equal entries are not always repeated.
Assay: RORgamma Gal4 Reporter Gene Assay (REN): Cells were incubated for additional 16 h before renilla (REN) luciferase activities were measured sequentially in the same cell extract using a Dual-Light-Luciferase-Assay system (Dyer et al., Anal. Biochem. 2000, 282:158). All experiments were done at least in triplicates.
Compound `CC(C)(C)NS(=O)(=O)c1ccc(-c2sc(C(=O)N[C@H]3C[C@H](C(=O)O)C3)nc2CC2CCCCC2)c(C(F)F)c1Cl` has an IC50 of 3.16 nM. Compound `CC(C)(C)NS(=O)(=O)c1ccc(-c2sc(C(=O)NC3CCS(=O)(=O)CC3)nc2CC2CCCCC2)c2ccncc12` has an IC50 of 12.6 nM. `CC(C)(C)NS(=O)(=O)c1ccc(-c2sc(C(=O)NCC3(O)CCOCC3)nc2CC2CCCCC2)cc1C(C)(C)O` showed an IC50 of 20 nM. `CC(C)(C)NS(=O)(=O)c1ccc(-c2sc(C(=O)NN3CCS(=O)(=O)CC3)nc2CC2CCCCC2)c(Cl)c1Cl` showed an IC50 of 2 nM. Compound `CC(C)(C)NS(=O)(=O)c1ccc(-c2sc(C(=O)N[C@H]3C[C@H](C(=O)O)C3)nc2CC2CCCCC2)c2c1CCC2` has an IC50 of 3.16 nM. In the case of `CC(C)(O)c1cc(-c2sc(C(=O)N[C@H]3C[C@H](C(=O)O)C3)nc2CC2CCCCC2)cc(C2(C)CC2)c1`, the IC50 is reported as 79.4 nM. In the case of `CC(C)(C)NS(=O)(=O)c1ccc(-c2sc(C(=O)NC3CCOCC3)nc2CC2CCCCC2)cc1C(C)(C)O`, the IC50 is reported as 20 nM. `CC(C)(C)NS(=O)(=O)c1ccc(-c2sc(C(=O)NN3CCOCC3)nc2CC2CCCCC2)c(Cl)c1Cl` showed an IC50 of 2 nM. Work on `CN(C(=O)c1nc(CC2CCCCC2)c(-c2cc(C(C)(C)C)cc(C3(C)CC3)c2)s1)C1CCOCC1` yielded an IC50 of 126 nM. `CC(C)(C)NS(=O)(=O)c1ccc(-c2sc(S(N)(=O)=O)nc2CC2CCCCC2)cc1C(C)(C)C` showed an IC50 of 251 nM. `CC(C)(C)c1cc(-c2sc(C(=O)N[C@H]3C[C@H](C(=O)O)C3)nc2CC2CCCCC2)cc(C(C)(F)F)c1` showed an IC50 of 39.8 nM. For `CC(C)(C)c1cc(-c2sc(S(N)(=O)=O)nc2CC2CCCCC2)cc(C(C)(C)C)c1`, the IC50 was 398 nM. In the case of `CC(C)(C)c1cc(-c2nc(C(N)=O)sc2CC2CCCCC2)cc(C(C)(C)C)c1`, the IC50 is reported as 1580 nM. `CC(C)(C)NS(=O)(=O)c1ccc(-c2sc(C(=O)NC3CSC3)nc2CC2CCCCC2)c(Cl)c1Cl` showed an IC50 of 2 nM. Compound `CC(C)(O)c1cc(-c2sc(C(=O)N[C@H]3C[C@@H](C(=O)O)C3)nc2CC2CCCCC2)cc(C2(C)CC2)c1` has an IC50 of 63.1 nM. In the case of `COC(c1nc(C(=O)NC2CCOCC2)sc1-c1cc(C(C)(C)C)cc(C2(C)CC2)c1)C1CCCCC1` (stereo not given), the IC50 is reported as 79.4 nM. In the case of `CC(C)(C)NS(=O)(=O)c1ccc(-c2sc(C(=O)NCC3(C(=O)O)CCOCC3)nc2CC2CCCCC2)c(Cl)c1Cl`, the IC50 is reported as 39.8 nM. With `CC(C)(C)NS(=O)(=O)c1ccc(-c2oc(C(=O)NC3CCOCC3)nc2CC2CCCCC2)cc1C(C)(C)C` the IC50 was 501 nM. With `CC(C)(C)NS(=O)(=O)c1ccc(-c2sc(C(=O)NCCN3CCOCC3)nc2CC2CCCCC2)cc1C(C)(C)O` the IC50 was 200 nM. `CC(C)(C)NS(=O)(=O)c1ccc(-c2sc(C(=O)NC3CCS(=O)(=O)CC3)nc2CC2CCCCC2)c(Cl)c1Cl` gave an IC50 of 2 nM. `CC(C)(C)NS(=O)(=O)c1ccc(-c2sc(C(=O)NC3CCS(=O)(=O)CC3)nc2CC2CCCCC2)c2ccccc12` gave an IC50 of 1 nM. In the case of `CC(C)(C)NS(=O)(=O)c1ccc(-c2sc(C(=O)NC3CSC3)nc2CC2CCCCC2)c2ccccc12`, the IC50 is reported as 2 nM. Compound `O=C(c1nc(CC2CCCCC2)c(-c2ccc(S(=O)(=O)NC3CS(=O)(=O)C3)c3ccccc23)s1)N1CC2(CCS(=O)(=O)CC2)C1` has an IC50 of 398 nM. Compound `CC(C)(C)NS(=O)(=O)c1ccc(-c2sc(C(=O)N[C@H]3C[C@H](C(=O)O)C3)nc2CC2CCCCC2)cc1C(F)(F)F` has an IC50 of 10 nM. `C[C@H](NS(=O)(=O)c1ccc(-c2sc(C(=O)NCC(C)(C)O)nc2CC2CCC2)c(Cl)c1)C(F)(F)F` showed an IC50 of 12.6 nM. `CC1(NC(=O)c2cc(-c3sc(C(=O)NC4CCS(=O)(=O)CC4)nc3CC3CCCCC3)cc(C3(C)CC3)c2)COC1` showed an IC50 of 12.6 nM. Compound `Cc1c(C(=O)NC(C)(C)C)cc(-c2sc(C(=O)N[C@H]3C[C@H](C(=O)O)C3)nc2CC2CCCCC2)cc1C1(C)CC1` has an IC50 of 158 nM. Work on `CC(C)(O)CNC(=O)c1nc(CC2CCCCC2)c(-c2ncc(S(=O)(=O)NC(C)(C)C)c3ccccc23)s1` yielded an IC50 of 20 nM. `C[C@H](NC(=O)c1cc(-c2sc(C(=O)NCC(C)(C)c3nnn[nH]3)nc2CC2CCCCC2)cc(C2(C)CC2)c1)C(F)(F)F` gave an IC50 of 31.6 nM. For `CC(C)(C)NS(=O)(=O)c1ccc(-c2sc(C(=O)NC3C[S+]([O-])C3)nc2CC2CCCCC2)cc1C(C)(C)O` (stereo not given), the IC50 was 10 nM and 50.1 nM. `COC(c1nc(C(=O)N[C@H]2C[C@H](C(=O)O)C2)sc1-c1cc(C(C)(C)C)cc(C2(C)CC2)c1)C1CCCCC1` (stereo not given in full) gave an IC50 of 100 nM. For `CC(C)(C)NS(=O)(=O)c1ccc(-c2sc(C(=O)NC3CCS(=O)(=O)CC3)nc2CC2CCC2)c2ccccc12`, the IC50 was 3.98 nM. With `CC(C)(C)NS(=O)(=O)c1ccc(-c2sc(C(=O)N[C@H]3C[C@H](C(=O)O)C3)nc2CC2CCCCC2)cc1C(C)(C)O` the IC50 was 10 nM. `CC1(c2cc(-c3sc(C(=O)N[C@H]4C[C@H](C(=O)O)C4)nc3CC3CCCCC3)cc(C(F)(F)F)c2)CC1` showed an IC50 of 79.4 nM. Compound `COC(c1nc(C(=O)NC2CCOCC2)sc1-c1ccc(S(=O)(=O)NC(C)(C)C)c(C(C)(C)C)c1)C1CCCCC1` (stereo not given) has an IC50 of 200 nM. Work on `CNS(=O)(=O)c1ccc(-c2sc(C(=O)N3CC4(CCS(=O)(=O)CC4)C3)nc2CC2CCCCC2)c2ccccc12` yielded an IC50 of 251 nM. `CC(C)(C)NS(=O)(=O)c1ccc(-c2sc(C(=O)NC34CCC(C(=O)O)(CC3)CC4)nc2CC2CCCCC2)c2ccccc12` gave an IC50 of 6.31 nM. Work on `CC(C)(C)NS(=O)(=O)c1ccc(-c2sc(C(=O)NCCC(C)(C)C(=O)O)nc2CC2CCCCC2)c(Cl)c1Cl` yielded an IC50 of 6.31 nM. `CC(C)COc1cc(-c2sc(C(=O)N[C@H]3C[C@H](C(=O)O)C3)nc2CC2CCCCC2)cc(C(C)(C)C)n1` showed an IC50 of 39.8 nM. `CC(C)(C)c1cc(-c2oc(C(N)=O)nc2CC2CCCCC2)cc(C(C)(C)C)c1` showed an IC50 of 1580 nM. Compound `CC(C)(CCNC(=O)c1nc(CC2CCCCC2)c(-c2cc(C(C)(C)C)cc(C3(C)CC3)c2)s1)C(=O)O` has an IC50 of 100 nM. `CC(C)(C)NS(=O)(=O)c1ccc(-c2nc(C(=O)NC3CCS(=O)(=O)CC3)sc2CC2CCCCC2)c2ccccc12` showed an IC50 of 1 nM. `CC(C)(CO)NS(=O)(=O)c1ccc(-c2sc(C(=O)N3CC4(CCS(=O)(=O)CC4)C3)nc2CC2CCCCC2)c2ccccc12` showed an IC50 of 79.4 nM. `CC(C)(C)NS(=O)(=O)c1ccc(-c2sc(C(=O)NC3COC3)nc2CC2CCCCC2)c(Cl)c1Cl` gave an IC50 of 3.16 nM. `CC(O)c1c(S(=O)(=O)NC(C)(C)C)ccc(-c2sc(C(=O)N3CC4(CCS(=O)(=O)CC4)C3)nc2CC2CCCCC2)c1Cl` (stereo not given) showed an IC50 of 200 nM. Work on `CC(C)(C)NS(=O)(=O)c1ccc(-c2sc(C(=O)NC3CCC(C(=O)O)C3)nc2CC2CCCCC2)c2ccccc12` (stereo not given) yielded an IC50 of 3.98 nM. `CC(C)(C)NS(=O)(=O)c1ccc(-c2sc(C(=O)NC3CCS(=O)(=O)CC3)nc2CC2CC2)c(Cl)c1Cl` showed an IC50 of 31.6 nM. With `C[C@H](NS(=O)(=O)c1ccc(-c2sc(C(=O)NCC(C)(C)O)nc2CC2CCC2)c(C(F)(F)F)c1)C(F)(F)F` the IC50 was 20 nM. Work on `CC(C)(C#N)CNC(=O)c1nc(CC2CCCCC2)c(-c2ccc(S(=O)(=O)NC(C)(C)C)c3ccccc23)s1` yielded an IC50 of 2 nM. Compound `COCC(C)(C)NS(=O)(=O)c1ccc(-c2sc(C(=O)N3CC4(CCS(=O)(=O)CC4)C3)nc2CC2CCCCC2)c2ccccc12` has an IC50 of 39.8 nM. `CC(C)(C)NS(=O)(=O)c1ccc(-c2sc(C(=O)N3CC(C(C)(C)C(=O)O)C3)nc2CC2CCCCC2)c(Cl)c1Cl` gave an IC50 of 126 nM. `O=C(NC1CCS(=O)(=O)CC1)c1nc(CC2CCCCC2)c(-c2ccc(N3CCOCC3)c3ccccc23)s1` showed an IC50 of 126 nM. Work on `CC(C)(C)NS(=O)(=O)c1ccc(-c2sc(C(=O)NCCC(C)(C)C(=O)O)nc2CC2CCCCC2)cc1C(F)(F)F` yielded an IC50 of 39.8 nM. `CC(C)(C)NS(=O)(=O)c1ccc(-c2sc(C(=O)NC3CC3)nc2CC2CCCCC2)c(Cl)c1Cl` gave an IC50 of 10 nM. In the case of `CC(C)(C)NS(=O)(=O)c1ccc(-c2sc(C(=O)NC3CS(=O)(=O)C3)nc2CC2CCCCC2)cc1C(C)(C)O`, the IC50 is reported as 12.6 nM.

Reference: ChEMBL document CHEMBL5727000, “Carboxamide or sulfonamide substituted thiazoles and related derivatives as modulators for the orphan nuclear receptor ROR[γ]” (2019)
